{"source": "patent US7070813B2", "about": "“Preventative and treatment effects of morinda citrifolia as a colon cancer cell growth inhibitor” (priority 2001, dated 2006)", "tested_on": "human colon tumor cell line DLD-1", "assay": "cells", "type": "cell-based", "details": "for Percent Growth (Mean ± SEM, n = 2): 72 h exposure", "experimental": "A colon tumor assay was used to detect changes in cell proliferation based on the ability of viable cells to cause alamarBlue to change from its oxidized state (non-fluorescent, blue) to a reduced (fluorescent, red) form. With the results obtained from the alamarBlue reaction, cell proliferation can be quantified and metabolic activity of viable cells can be examined. MDA-1 (a processed Morinda citrifolia product) was tested for its effect upon the proliferation of human colon tumor cell line (or DLD-1), and at five final assay concentrations from 10% to […] through 2-fold serial dilutions.\nThe MDA-1 test compound, or Morinda citrifolia fruit juice, was used for in vitro anti-tumor studies. The test compound was in liquid form and diluted with phosphate-buffered saline to obtain initial working solutions. […]\nThe human colon tumor cell line of DLD-1 was obtained from American Type Culture Collection (ATCC CCL-221). The culture was used with RPMI 1640, 90%; Fetal Bovine Serum, 10% and supplemented with 1% Antibiotic-Antimycotic and the cells were incubated in an atmosphere containing 5% CO2 at 37 degrees Celsius.\nIn the evaluation of anti-proliferation for test substances, […].\nMean Ftime0=The average of two measured fluorescent intensities of reduced alamarBlue at the time just before exposure of cells to the test substance.\nMean Ftest=The average of two measured fluorescent intensities of alamarBlue after seventy-two hour exposure of cells to the test substance.\nMean Fctrl=The average of two measured fluorescent intensities of alamarBlue after seventy-two hour incubation without the test substance.\nMean Fblank=The average of two measured fluorescent intensities of alamarBlue in medium without cells after seventy-two hour incubation.\nA decrease of fifty percent or more (≧50%) in fluorescent intensity relative to vehicle-treated control indicated significant cell growth inhibition, cytostatic or cytotoxic activity, and a semi-quantitative IC50, TGI and LC50 were then determined by nonlinear regression using GraphPad Prism (GraphPad Software, USA).\nTGI (Total Growth Inhibition): Test compound concentration where the number or mass of treated cells at the end of experiment was equal to that at time0.\nA semi-quantitative determination of IC50, TGI and LC50 was carried out by nonlinear regression analysis using GraphPad Prism (GraphPad Software, USA).", "data": [{"smiles": "CO[C@@]12[C@H](COC(N)=O)C3=C(C(=O)C(C)=C(N)C3=O)N1C[C@@H]1N[C@@H]12", "note": "[Mitomycin]", "values": [{"measurement": "activity of standard reference agent (growth inhibition)", "setting": "DLD-1, at <10 μM", "value": "Significant activity"}, {"measurement": "Percent Growth (Mean ± SEM, n = 2)", "setting": "DLD-1, concentration 0.001 μM", "value": "95 ± 5"}, {"measurement": "Percent Growth (Mean ± SEM, n = 2)", "setting": "DLD-1, concentration 0.01 μM", "value": "103 ± 6"}, {"measurement": "Percent Growth (Mean ± SEM, n = 2)", "setting": "DLD-1, concentration 0.1 μM", "value": "60 ± 7"}, {"measurement": "Percent Growth (Mean ± SEM, n = 2)", "setting": "DLD-1, concentration 1 μM", "value": "35 ± 4"}, {"measurement": "Percent Growth (Mean ± SEM, n = 2)", "setting": "DLD-1, concentration 10 μM", "value": "−50 ± 8"}, {"measurement": "Estimated TGI (Total Growth Inhibition)", "setting": "DLD-1, semi-quantitative, nonlinear regression", "value": 2200, "unit": "nM"}, {"measurement": "IC50", "setting": "Homo sapiens, DLD-1, semi-quantitative, nonlinear regression, read-out: Estimated IC50 (50% Inhibition Concentration)", "value": 380, "unit": "nM"}]}]}
